Measured values taken from US20020133832A1, “Model systems for neuordegenerative and cardiovascular disorders” (priority 2000, published 2002).
“Also recorded” adds a separate entry of the source.

Assays:
Assay type in all cases: in vivo, mouse
S1+/− and T1+/− mice = assay: Rescue of reduced rearing behavior (rearings/min) in the open field; conditions: terazosin target dose 0.05 mg/kg body weight/day via drinking water, four weeks, L-DOPA as Sinemet
From the text: FIG. 6. An Active Open Field Activity System (Harvard Apparatus, Holliston, Mass.) was used to monitor total activity, distance traveled/min and number of rearings/min in age matched NT (▴), W2+/−(▪), S1+/−(●) and T1+/−(▾) and T2+/−(♦) mice. The open field for these experiments was a 16 inch by 16 inch enclosure with infrared beams of light aimed to form grids near the floor and 3 inches above the floor of the enclosure. (A) Total activity, or the total number of beam breaks each minute, was determined in two month old mice for a total time of 15 min. (B) A computer algorithm was used to calculate the distance traveled/min during horizontal ambulation by mice of varying age. (C) The number of rearings/minute was determined by electronically tallying the number of times mice of varying age reared onto their hindlimbs, facilitating a greater than 1 sec beam break in the upper grid (3 inches above the floor of the enclosure). (D) Snapshot of an 11 month old S1+/− mouse showing elongation of the torso caused by sprawling and dragging of the hindlimbs. (E) The ability of terazosin and L-DOPA to rescue the reduced number of rearings/min seen in eighteen month old S1+/− and T1+/− mice was tested by administering a target dose of 0.05 mg terazosin/kg body weight/day via the drinking water. After a four week pretreatment with the drug, the number of rearings/min was determined. All error bars in the Figurere present SEM (n>3) and significance in D was determined using analysis of variance with a two-tailed Student's t test (p<0.05).
Receptor overactivity was inhibited in S1+/− and T1+/− mice via treatment with the α1BAR-specific antagonist terazosin. Animals were treated with the drug at a target dose of 0.05 mg/Kg of body weight/day via the drinking water. […] (FIG. 6E).

T2+/− mice [1] = assay: Percent seizure activity induced by open field stress; conditions: T2 mice at 12 months of age, 0.05 mg/Kg body weight/day via drinking water, four weeks
Procedure: (§1) FIG. 7. (A) Sequence of seizure behaviors in a 12 month old T2+/− mouse. 1; behavioral arrest. 2; loss of balance and whole body jerking. 3; forelimb flexion. 4; recovery. (B) Comparison of percent seizure activity induced by open field stress in various lines of mice at 12 months of age. […] Percent seizure activity was then calculated by dividing the number of seizure-positive mice by the total number of mice tested. The total number of mice tested for each case is shown above the respective column in the graph. The ability of terazosin to rescue T2+/− mice from the seizure phenotype was tested by administering a target dose of 0.05 mg/kg body weight/day via the drinking water. After a four week pretreatment with the drug, percent seizure activity was determined. (C) Identical experiment to that described in B, except percent seizure activity was determined in lines of mice at seven months of age that were exposed to intraperitoneal injection (IPI) stress. IPI stress was administered to the mice by intraperitoneal injection of […] of sterile 0.9% NaCl.
The seizure event seen in W2+/−, S 1+/−, T1+/− and T2+/− mice at twelve months of age was evoked by exposure to the open field (i.e. handling-invoked stress) and was characterized by behavioral arrest, facial twitching, loss of balance, forelimb automatism, whole body jerking and hypersalivation. […]

T2+/− mice [2] = assay: Percent seizure activity induced by intraperitoneal injection (IPI) stress; conditions: T2 mice at 7 months of age, 0.05 mg/Kg body weight/day via drinking water, 4 weeks, 0.05 mg/kg/day
Procedure: as §1
Seizures seen in response to this intraperitoneal injection stress (IPI stress) resembled the open field stress-induced event in terms of severity, characteristics and duration. […]

SMILES | rearing behavior (number of rearings/min) (S1+/− and T1+/− mice; eighteen month old S1+/− mice) | rearing behavior (number of rearings/min) (S1+/− and T1+/− mice; eighteen month old T1+/− mice) | percent seizure activity (T2+/− mice [1]) | percent seizure activity (T2+/− mice [2])
N[C@@H](Cc1ccc(O)c(O)c1)C(=O)O [L-DOPA] | did not improve the locomotor activity | dramatically reversed the rearing deficit |  | 
COc1cc2nc(N3CCN(C(=O)C4CCCO4)CC3)nc(N)c2cc1OC (stereo not drawn) [terazosin] | partial rescue of the rearing behavior | partial rescue of the rearing behavior | partially reversible i.e., fewer events | reduced the number of younger T2+/− mice displaying IPI-induced seizures; also recorded: partially reversed the phenotype
